# Source: US5013722A, “Cholecystokinin analogs for controlling appetite” (Hoffmann-LaRoche Inc., priority 1989, dated 1991)
# “Also recorded” adds a separate entry of the source. Where a SMILES comes first, the peptide text is derived from it. [ ]: non-standard residue; d: D form. Thr(SO3H) = C[C@@H](OS(=O)(=O)O)[C@H](N)C(=O)O; sY = N[C@@H](Cc1ccc(OS(=O)(=O)O)cc1)C(=O)O; NMeF = CN[C@@H](Cc1ccccc1)C(=O)O
# What was measured:
# [1] = system: Male Sprague-Dawley (CD) rats, food intake; experiment: Two-meal feeding assay, intraperitoneal administration; format: in vivo, rat
# Procedure: (§1) Male Sprague-Dawley (CD) rats weighing 180-200 grams (Charles River Breeding Laboratories) were acclimated to a 12 h light/dark cycle (6 a.m. to 6 p.m.) in a room kept at 22° C. They were subsequently fasted for two days, weighed, placed in individual cages, and a four-day period of meal training was begun. During this time the rats were given ground laboratory chow (Purina Lab Chow) in jars for one hour from 9:00 a.m. until 10:00 a.m., the jars were removed from 10:00 a.m. to 12:00 p.m., and placed back in the cages from 12:00 until 1:00 p.m. Under this `1-2-1` meal feeding regime most rats learn to eat approximately as much Per day during the two hours they have access to food as rats which have food ad libitum over the entire 24-hour day. On the fourth day, the rats were weighed again, and any which lost more than five grams body weight were excluded from the test. The animals were then distributed into experimental (n=5 to 6) and control groups (n=6-12). but not matched for body weight.
# Peptides of the invention were suspended either in saline. if soluble, or in 1% gum arabic, if insoluble, at concentrations of 0 to 320 μg/ml/kg body weight and were administered intraperitonerally 15 min before the first meal on day 5 of meal feeding. The rats were then given their meals as they had been during the previous four days, and the food cups were weighed both before and after each meal to determine food consumption. Food intake was expressed as a mean and standard error of the mean in grams consumed or as a percent of control values for the various groups. The treated groups were compared to the control groups by t-test analysis. […]
# Male rats, food intake = experiment: Two-meal feeding assay, intranasal administration; format: in vivo, rat; conditions: for Food Intake 1st meal (%) / Food Intake 2nd meal (%): saline = 100
# Procedure: as §1
# Male rats were meal trained as described in Example 9. The peptide of Example 2 was dissolved in saline and was administered to the rats intranasally. CCK-8, dissolved in saline was used as a control.
structure (smiles),measurement,setting,value
"CSCC[C@H](NC(=O)[C@H](Cc1ccc(OS(=O)(=O)O)cc1)NC(C)=O)C(=O)NCC(=O)N[C@@H](Cc1c[nH]c2ccccc12)C(=O)N[C@@H](CCSC)C(=O)N[C@H](C(=O)N(C)[C@@H](Cc1ccccc1)C(N)=O)[C@@H](C)OS(=O)(=O)O [Example 2, Ac-Tyr(SO3 H)-Met-Gly-Trp-Met-Thr(SO3 H)-N-methyl-Phe-NH2] (Ac-[sY]MGWM[Thr(SO3H)][NMeF]-NH2)",Food Intake 1st Meal,"[1]; 32 microgm/Kg i.p., 15 min before first meal, mean ± SEM",8 ± 1 % of Control
same,Food Intake 2nd Meal,"[1]; 32 microgm/Kg i.p., mean ± SEM",26 ± 4 % of Control
same,Food intake suppression over dosage range compared with CCK-8 (FIG. 1),"[1]; first meal, i.p., dosage range of FIG. 1",effectively reduced food intake during the first meal at a much lower dosage range than did CCK-8; also recorded: effectively suppresses food intake in rats at a lower dosage than does CCK-8
same,Food Intake 1st meal Grams consumed,"Male rats, food intake; 3 μg/kg intranasal",7.5 ± 0.8 Grams
same,Food Intake 2nd meal Grams consumed,"Male rats, food intake; 3 μg/kg intranasal",6.1 ± 0.3 Grams
same,Food Intake 1st meal (%),"Male rats, food intake; 3 μg/kg intranasal",102%
same,Food Intake 2nd meal (%),"Male rats, food intake; 3 μg/kg intranasal",109%
same,Food Intake 1st meal Grams consumed,"Male rats, food intake; 10 μg/kg intranasal",5.5 ± 0.6 Grams
same,Food Intake 2nd meal Grams consumed,"Male rats, food intake; 10 μg/kg intranasal",6.3 ± 0.4 Grams
same,Food Intake 1st meal (%),"Male rats, food intake; 10 μg/kg intranasal",74%
same,Food Intake 2nd meal (%),"Male rats, food intake; 10 μg/kg intranasal",112%
same,Food Intake 1st meal Grams consumed,"Male rats, food intake; 30 μg/kg intranasal",5.8 ± 0.7 Grams
same,Food Intake 2nd meal Grams consumed,"Male rats, food intake; 30 μg/kg intranasal",4.3 ± 0.6 Grams
same,Food Intake 1st meal (%),"Male rats, food intake; 30 μg/kg intranasal",78%
same,Food Intake 2nd meal (%),"Male rats, food intake; 30 μg/kg intranasal",76%
same,Food Intake 1st meal Grams consumed,"Male rats, food intake; 100 μg/kg intranasal",3.4 ± 0.4 Grams
same,Food Intake 2nd meal Grams consumed,"Male rats, food intake; 100 μg/kg intranasal",4.6 ± 0.5 Grams
same,Food Intake 1st meal (%),"Male rats, food intake; 100 μg/kg intranasal",46%
same,Food Intake 2nd meal (%),"Male rats, food intake; 100 μg/kg intranasal",82%
